Laboratory results from patent US10053458B2, “Pyrimidine-2,4-diamine derivative and anticancer pharmaceutical composition comprising same as effective ingredient” (KOREA RESEARCH INSTITUTE OF CHEMICAL TECHNOLOGY, priority 2014, dated 2018).

Tests used:
H2228 = assay: Cancer cell proliferation inhibition (SRB/MTS), H2228; conditions: Homo sapiens, NCI-H2228, 72 h, read-out: H2228 GI50
Procedure: (§1) Cancer cell lines used in the experiments were all human-derived cancer cell lines, specifically H2228 and H3122, which are non-small cell lung cancer cell lines.
(§2) The cancer cell proliferation inhibition was measured using the MTS assay as follows. […] Each culture medium was placed in an incubator for 4 hours, taken out and left at room temperature for 10 minutes.

H3122 = assay: Cancer cell proliferation inhibition (SRB/MTS), H3122; conditions: Homo sapiens, NCI-H3122, 72 h, read-out: H3122 GI50
Procedure: as §1, §2

BaF3 EML4-ALK WT cells = assay: Cytotoxicity on BaF3 cell transfected with EML4-ALK WT (WST-1); conditions: Ba/F3 EML4-ALK, 72 h, read-out: BaF3 EML4-ALK WT, IC50 of the cytotoxicity

Compound | GI50 (H2228) [nM] | GI50 (H3122) [nM] | IC50 (BaF3 EML4-ALK WT cells) [nM]
CC(C)Oc1cc2c(cc1Nc1ncc(Cl)c(Nc3ccccc3S(=O)(=O)C(C)C)n1)CCNC2C (stereo not drawn) [Example 70, 5-chloro-N4-(2-(isopropylsulfonyl)phenyl)-N2-(7-isopropoxy-1-methyl-1,2,3,4-tetrahydroisoquinolin 6 yl)pyrimidine-2,4-diamine] | < 50 | < 50 | < 50
CCC(C)Oc1cc2c(cc1Nc1ncc(Cl)c(Nc3ccccc3S(=O)(=O)C(C)C)n1)CCN(C(=O)C(F)(F)F)C2 (stereo not drawn) [Example 21] | < 50 | < 50 | < 50
COc1cc2c(cc1Nc1ncc(Cl)c(Nc3ccccc3S(=O)(=O)C(C)C)n1)CC1(CC1)N(C(=O)C(F)(F)F)C2C (stereo not drawn) [Example 29] | < 50 | < 50 | < 50
COc1cc2c(cc1Nc1ncc(Cl)c(Nc3ccccc3S(=O)(=O)C(C)C)n1)CCN(Cc1ccccc1)C2(C)C [Example 31, 5-chloro-N4-(2-(isopropylsulfonyl)phenyl)-N2-(2-benzyl-7-methoxy-1,1-dimethyl-1,2,3,4-tetrahydroisoquinolin-6-yl)pyrimidine-2,4-diamine] | < 50 | < 50 | < 50
COc1cc2c(cc1Nc1ncc(Cl)c(Nc3ccccc3S(=O)(=O)C(C)C)n1)CCNC2C(C)C (stereo not drawn) [Example 28] | < 50 | 21 | 13
COc1cc2c(cc1Nc1ncc(Cl)c(Nc3ccccc3S(=O)(=O)C(C)C)n1)CC1(CC1)NC2C (stereo not drawn) [Example 30, 5-chloro-N4-(2-(isopropylsulfonyl)phenyl)-N2-(7-methoxy-1methyl-1,4-dihydro-2H-spiro[cyclopropane-1,3-isoquinoline]-6-yl)pyrimidine-2,4-diamine] | < 50 | < 50 | 5
COc1c(Nc2ncc(Cl)c(Nc3ccccc3S(=O)(=O)C(C)C)n2)cc2c(c1Cl)C(C)(C)NCC2 [Example 90, 5-chloro-N4-(2-(isopropylsulfonyl)phenyl)-N2-(8-chloro-7-methoxy-1,1-dimethyl-1,2,3,4-tetrahydroisoquinolin-6-yl)pyrimidine-2,4-diamine] | < 50 | < 50 | < 50
COc1cc2c(cc1Nc1ncc(Cl)c(Nc3ccccc3S(=O)(=O)C(C)C)n1)CCNC2C(=O)O (stereo not drawn) [Example 76, 6-(5-chloro-4-(2-(isopropylsulfonyl)phenylamino)pyrimidin-2-yl)amino-7-methoxy-1,2,3,4-dihydroisoquinoline-1-carboxylic acid] | < 50 | < 50 | < 50
COc1c(Nc2ncc(Cl)c(Nc3ccccc3S(=O)(=O)C(C)C)n2)cc2c(c1Br)C(C)(C)NCC2 [Example 89, 5-chloro-N4-(2-(isopropylsulfonyl)phenyl)-N2-(8-bromo-7-methoxy-1,1-dimethyl-1,2,3,4-tetrahydroisoquinolin-6-yl)pyrimidine-2,4-diamine] | < 50 | < 50 | < 50
COc1cc2c(cc1Nc1ncc(Cl)c(Nc3ccccc3S(=O)(=O)C(C)C)n1)C1CNCC(=O)N1CC2(C)C (stereo not drawn) [Example 85] | < 50 | < 50 | < 50
CC(C)S(=O)(=O)c1ccccc1Nc1nc(Nc2cc3c(cc2OC(F)F)C(C)(C)NCC3)ncc1Cl [Example 100, 5-chloro-N4-(2-(isopropylsulfonyl)phenyl)-N2-(7-difluoromethoxy-1,1-dimethyl-1,2,3,4-tetrahydroisoquinolin-6-yl)pyrimidine-2,4-diamine] | < 50 | < 50 | < 50
COc1cc2c(c(Cl)c1Nc1ncc(Cl)c(Nc3ccccc3S(=O)(=O)C(C)C)n1)CCNC2(C)C [Example 88, 5-chloro-N4-(2-(isopropylsulfonyl)phenyl)-N2-(5-chloro-7-methoxy-1,1-dimethyl-1,2,3,4-tetrahydroisoquinolin-6-yl)pyrimidine-2,4-diamine] | < 50 | < 50 | < 50
COc1cc2c(cc1Nc1ncc(Cl)c(Nc3ccccc3S(=O)(=O)C(C)C)n1)CCN(C(=O)C(F)(F)F)C2(C)C [Example 32, 1-(6-(5-chloro-4-(2-(isopropylsulfonyl)phenylamino)pyrimidin-2-yl)amino-7-methoxy-1,1-dimethyl-3,4-dihydroisoquinolin-2(1H)-yl)-2,2,2-trifluoroethane-1-one] | < 50 | < 50 | < 50
CCCC1NCCc2cc(Nc3ncc(Cl)c(Nc4ccccc4S(=O)(=O)C(C)C)n3)c(OC)cc21 (stereo not drawn) [Example 102, 5-chloro-N4-(2-(isopropylsulfonyl)phenyl)-N2-(7-methoxy-1-propyl-1,2,3,4-tetrahydroisoquinolin-6-yl)pyrimidine-2,4-diamine] | < 50 | < 50 | < 50

Continued, in another order:

GI50 (H2228) [nM] | GI50 (H3122) [nM] | Compound | IC50 (BaF3 EML4-ALK WT cells) [nM]
< 50 | < 50 | CCN1Cc2cc(Nc3ncc(Cl)c(Nc4ccccc4S(=O)(=O)C(C)C)n3)c(OC(C)C)cc2C(C)(C)C1 [Example 82, 5-chloro-N4-(2-(isopropylsulfonyl)phenyl)-N2-(2-ethyl-6-isopropoxy-4,4-dimethyl-1,2,3,4-tetrahydroisoquinolin-7-yl)pyrimidine-2,4-diamine] | < 50
< 50 | < 50 | COc1cc2c(cc1Nc1ncc(Cl)c(Nc3ccccc3S(=O)(=O)C(C)C)n1)CCN(C(=O)CO)C2(C)C [Example 78, 1-6-(5-chloro-4-(2-(isopropylsulfonyl)phenylamino)pyrimidin-2-yl)amino-7-methoxy-1,1-dimethyl-3,4-dihydroisoquinolin-2(1H)-yl-2-hydroxyethane-1-one] | < 50
< 50 | < 50 | CCN1CCc2cc(Nc3ncc(Cl)c(Nc4ccccc4S(=O)(=O)C(C)C)n3)c(OC)cc2C1(C)C [Example 77, 5-chloro-N4-(2-(isopropylsulfonyl)phenyl)-N2-(2-ethyl-7-methoxy-1,1-dimethyl-1,2,3,4-tetrahydroisoquinolin-6-yl)pyrimidine-2,4-diamine] | < 50
< 50 | < 50 | COc1cc2c(cc1Nc1ncc(Cl)c(Nc3ccccc3S(=O)(=O)C(C)C)n1)C(C)(C)CN(C(=O)C(F)(F)F)C2 [Example 11, 1-(6-(5-chloro-4-(2-(isopropylsulfonyl)phenylamino)pyrimidin-2-yl)amino-7-methoxy-4,4-dimethyl-3,4-dihydroisoquinolin-2(1H)-yl)-2,2,2-trifluoroethane-1-one] | < 50
< 50 | < 50 | CCN1Cc2cc(Nc3ncc(Cl)c(Nc4ccccc4S(=O)(=O)C(C)C)n3)c(OC)cc2C(C)(C)C1 [Example 92, 5-chloro-N4-(2-(isopropylsulfonyl)phenyl)-N2-(2-ethyl-6-methoxy-4,4-trimethyl-1,2,3,4-tetrahydroisoquinolin-7-yl)pyrimidine-2,4-diamine] | < 50
< 50 | < 50 | CCOc1cc2c(cc1Nc1ncc(Cl)c(Nc3ccccc3S(=O)(=O)C(C)C)n1)CCNC2(C)C [Example 99, 5-chloro-N4-(2-(isopropylsulfonyl)phenyl)-N2-(7-ethoxy-1,1-dimethyl-1,2,3,4-tetrahydroisoquinolin-6-yl)pyrimidine-2,4-diamine] | < 50
< 50 | < 50 | CCN1CCc2cc(Nc3ncc(Cl)c(Nc4ccccc4S(=O)(=O)C(C)C)n3)c(OC(C)C)cc2C1(C)C [Example 79, 5-chloro-N4-(2-(isopropylsulfonyl)phenyl)-N2-(2-ethyl-7-isopropoxy-1,1-dimethyl-1,2,3,4-tetrahydroisoquinolin-6-yl)pyrimidine-2,4-diamine] | < 50
< 50 | < 50 | COc1cc2c(cc1Nc1ncc(Cl)c(Nc3ccccc3S(=O)(=O)C(C)C)n1)C(C)(C)CNC2 [Example 12, 5-chloro-N4-(2-(isopropylsulfonyl)phenyl)-N2-(7-methoxy-4,4-dimethyl-1,2,3,4-tetrahydroisoquinolin-6-yl)pyrimidine-2,4-diamine] | < 50
< 50 | < 50 | COc1cc2c(cc1Nc1ncc(Cl)c(Nc3ccccc3S(=O)(=O)C(C)C)n1)CNC2(C)C [Example 106, 5-chloro-N4-(2-(isopropylsulfonyl)phenyl)-N2-(6-methoxy-1,1-dimethylisoindolin-5-yl)pyrimidine-2,4-diamine] | < 50
< 50 | < 50 | CC(C)Oc1cc2c(cc1Nc1ncc(Cl)c(Nc3ccccc3S(=O)(=O)C(C)C)n1)CNCC2(C)C [Example 80, 5-chloro-N4-(2-(isopropylsulfonyl)phenyl)-N2-(6-isopropoxy-4,4-dimethyl-1,2,3,4-tetrahydroisoquinolin-7-yl)pyrimidine-2,4-diamine] | < 50
< 50 | < 50 | COc1cc2c(cc1Nc1ncc(Cl)c(Nc3ccccc3S(=O)(=O)C(C)C)n1)CCNCC2(C)C [Example 105, 5-chloro-N4-(2-(isopropylsulfonyl)phenyl)-N2-(8-methoxy-1,1-dimethyl-2,3,4,5-tetrahydro-1H-benzo[d]azepin-7-yl)pyrimidine-2,4-diamine] | < 50
< 50 | < 50 | CCC1(CC)NCCc2cc(Nc3ncc(Cl)c(Nc4ccccc4S(=O)(=O)C(C)C)n3)c(OC)cc21 [Example 74, 5-chloro-N4-(2-(isopropylsulfonyl)phenyl)-N2-(1,1-diethyl-7-methoxy-1,2,3,4-tetrahydroisoquinolin-6-yl)pyrimidine-2,4-diamine] | < 50
